Like-named read-outs stand apart in the source and are kept apart here. Non-standard residues stand in square brackets, D forms with d. Residues, ends and D or L forms follow the SMILES beside them. No end group written: not given here.
Columns and labels:
CXCL8 = type: cell-based, human; conditions: control cells set at 1.000, cells harvested after 24 hours
IL6 = type: cell-based, human; conditions: control cells set at 1.000, cells harvested after 24 hours
TNFRSF1A = type: cell-based, human; conditions: control cells set at 1.000, cells harvested after 24 hours
CCL2 = type: cell-based, human; conditions: control cells set at 1.000, cells harvested after 24 hours
TMPRSS2 = type: cell-based, human; conditions: control cells set at 1.000, cells harvested after 24 hours
ILIA = type: cell-based, human; conditions: control cells set at 1.000, cells harvested after 24 hours
TNFRSF9 = type: cell-based, human; conditions: control cells set at 1.000, cells harvested after 24 hours
CCL5 = type: cell-based, human; conditions: control cells set at 1.000, cells harvested after 24 hours
TNF = type: cell-based, human; conditions: control cells set at 1.000, cells harvested after 24 hours
NFKB2 = type: cell-based, human; conditions: control cells set at 1.000, cells harvested after 24 hours
IL1B = type: cell-based, human; conditions: control cells set at 1.000, cells harvested after 24 hours
ACE2 receptor = type: cell-based, human; conditions: control cells set at 1.000, cells harvested after 24 hours
[1] = tested on: carrageenan (CAR) induced inflammation model; experiment: Carrageenan (CAR) induced paw edema model; type: in vivo; conditions: rat, peptide 70 ng, 1 nanomole injected 30 minutes after CAR; for Edema, change in paw volume after CAR injection: sub-plantar CAR 100 μL of 1% suspension, plethysmometer hourly for 24 h, versus control animals
Text: The anti-inflammatory activity of YMAP[D]EV (SEQ ID NO:116) was also examined in a classical carrageenan (CAR) induced inflammation model (Ivan G. Otterness, Peter F. Moore, Carrageenan foot edema test, Methods in Enzymology, Academic Press, Volume 162, 1988, Pages 320-327, (see URL www.sciencedirect.com/science/article/pii/0076687988620866); Fehrenbacher J C et al., Models of inflammation: Carrageenan- or complete Freund's Adjuvant (CFA)-induced edema and hypersensitivity in the rat. Curr Protoc Pharmacol. 2012 March; Chapter 5m Unit5.4, doi:10.1002/0471141755.ph0504s56. PMID: 22382999; PMCID: PMC4683998.). Paw edema was induced by a sub-plantar injection of CAR (100 μL of a 1% suspension in 0.85% saline). In the treatment group, YMAP[D]EV (SEQ ID NO:116) (70 ng, 1 nanomole) was injected 30 minutes after CAR injection. Changes in paw volume were measured using a plethysmometer immediately before CAR injection, and then at hourly intervals for 24 h. Edema was expressed as change in paw volume (mL) after CAR injection relative to the pre-injection value for each rat.

NFKB1 = type: cell-based, human; conditions: control cells set at 1.000, cells harvested after 24 hours

CSCC[C@H](NC(=O)[C@@H](N)Cc1ccc(O)cc1)C(=O)N[C@@H](C)C(=O)N1CCC[C@H]1C(=O)N[C@H](CCC(=O)O)C(=O)N[C@H](C(=O)O)C(C)C [PEP2, L-tyrosyl-L-methionyl-L-alanyl-L-prolyl-D-glutamyl-L-valine] (H-YMAP[dE]V-OH)
CXCL8 RNA expression, ratio of treated cells to control cells (CXCL8; DriverMap gene analysis): 0.0052 | IL6 RNA expression, ratio of treated cells to control cells (IL6; DriverMap gene analysis): 0.057 | TNFRSF1A RNA expression, ratio of treated cells to control cells (TNFRSF1A; DriverMap gene analysis): 0.752 | CCL2 RNA expression, ratio of treated cells to control cells (CCL2; DriverMap gene analysis): 0.059 | TMPRSS2 RNA expression, ratio of treated cells to control cells (TMPRSS2; DriverMap gene analysis): 1.000 | ILIA RNA expression, ratio of treated cells to control cells (ILIA; DriverMap gene analysis): 0.260 | TNFRSF9 RNA expression, ratio of treated cells to control cells (TNFRSF9; DriverMap gene analysis): 0.007 | CCL5 RNA expression, ratio of treated cells to control cells (CCL5; DriverMap gene analysis): 0.0003 | TNF RNA expression, ratio of treated cells to control cells (TNF; DriverMap gene analysis): 0.015 | NFKB2 RNA expression, ratio of treated cells to control cells (NFKB2; DriverMap gene analysis): 0.138 | IL1B RNA expression, ratio of treated cells to control cells (IL1B; DriverMap gene analysis): 0.010 | ACE2 receptor RNA expression, ratio of treated cells to control cells (ACE2 receptor; DriverMap gene analysis): 1.000 | Duration of the effect on edema ([1]; 24-hour period of observation): ≥ 24 h | Edema, change in paw volume after CAR injection [1]: marked decrease in edema within two hours | NFKB1 RNA expression, ratio of treated cells to control cells (NFKB1; DriverMap gene analysis): 0.243

ANVAENA [PEP1, L-alanyl-L-asparaginyl-L-valyl-L-alanyl-L-glutamyl-L-asparaginyl-L-alanine]
CXCL8 RNA expression, ratio of treated cells to control cells (CXCL8; Affymetrix gene arrays): 1.135 | IL6 RNA expression, ratio of treated cells to control cells (IL6; Affymetrix gene arrays): 1.135 | TNFRSF1A RNA expression, ratio of treated cells to control cells (TNFRSF1A; Affymetrix gene arrays): 1.415 | CCL2 RNA expression, ratio of treated cells to control cells (CCL2; Affymetrix gene arrays): 1.298 | TMPRSS2 RNA expression, ratio of treated cells to control cells (TMPRSS2; Affymetrix gene arrays): 0.525 | ILIA RNA expression, ratio of treated cells to control cells (ILIA; Affymetrix gene arrays): 0.036 | TNFRSF9 RNA expression, ratio of treated cells to control cells (TNFRSF9; Affymetrix gene arrays): 1.136 | CCL5 RNA expression, ratio of treated cells to control cells (CCL5; Affymetrix gene arrays): 0.456 | TNF RNA expression, ratio of treated cells to control cells (TNF; Affymetrix gene arrays): 0.349 | NFKB2 RNA expression, ratio of treated cells to control cells (NFKB2; Affymetrix gene arrays): 0.851 | IL1B RNA expression, ratio of treated cells to control cells (IL1B; Affymetrix gene arrays): 0.691 | ACE2 receptor RNA expression, ratio of treated cells to control cells (ACE2 receptor; Affymetrix gene arrays): 0.632 | Edema, change in paw volume after CAR injection [1]: nearly identical data | NFKB1 RNA expression, ratio of treated cells to control cells (NFKB1; Affymetrix gene arrays): 0.927

From US20220133837A1, “PEPTIDE INHIBITORS OF NF KAPPA B AND USE THEREOF IN TREATMENT OF COVID-19 AND INFLAMMATORY DISEASES” (priority 2020, published 2022)
